This is an account of results in US8680159B2, “Bradykinin 1 receptor modulating compounds” (Gruenenthal GmbH, priority 2010, dated 2014).

Structures are written as SMILES.

For the first test, the target named is T1, B1R receptor of the rat (CHO K1 cells stably transfected with the B1R gene of the rat) (Rattus norvegicus, UniProt P97583).
T1 construct: expressed in transfected cells; host or cells: CHO K1 cells (Chinese hamster ovary), stably transfected
T1 sequence (P97583 1-337): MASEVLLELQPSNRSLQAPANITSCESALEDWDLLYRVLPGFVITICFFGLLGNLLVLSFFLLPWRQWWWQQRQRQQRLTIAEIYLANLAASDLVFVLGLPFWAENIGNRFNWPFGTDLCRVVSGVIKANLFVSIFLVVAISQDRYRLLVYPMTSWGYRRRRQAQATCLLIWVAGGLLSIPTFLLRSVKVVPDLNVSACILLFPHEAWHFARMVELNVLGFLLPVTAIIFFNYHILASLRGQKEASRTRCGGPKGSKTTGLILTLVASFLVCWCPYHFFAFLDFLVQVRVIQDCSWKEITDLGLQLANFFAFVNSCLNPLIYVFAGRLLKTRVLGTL
The test is described as follows: Functional study on the bradykinin receptor 1 (B1R), Ca2+ fluorescence (Fluo-4) FLIPR/Novostar assay, rB1R cells. As to conditions: 10 μM. It counts as cell-based. The gist of the method: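 Stably transfected CHO K1 cells carrying human or rat B1R were Fluo-4 loaded and Ca2+ fluorescence read by FLIPR or Novostar. Compounds were added first at 10 μM for % activation, then the EC80 agonist was applied after 6-20 min (human: Lys-Des-Arg9-bradykinin; rat: Des-Arg9-bradykinin). % inhibition is relative to maximum achievable inhibition, and IC50 comes from concentration series.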
In the case of `CN(C(=O)NC1CC(C)(C)c2ccc(C(=O)N(C)C3CCN(c4ccncc4)CC3)cc21)c1ccccc1Cl` (stereo not shown) [CC_H-245, 3-[[(2-Chlorophenyl)-methyl-carbamoyl]amino]-N,1,1-trimethyl-N-(1-pyridin-4-yl-piperidin-4-yl)-2,3-dihydro-indene-5-carboxylic acid amide], the “% Inhibition (r-B1R) at 10 μM” value is listed as 107%.

The test is the same for the next values; noted with them: CHO-K1, 10 μM, library compounds CC_H, read-out: % Inhibition (r-B1R) at 10 μM.
As to `CN(C(=O)c1ccc2c(c1)C(NC(=O)c1cccnc1C(F)(F)F)CC2)C1CCN(c2ncncc2F)CC1` (stereo not shown) [CC_H-621, N-[6-[[1-(5-Fluoro-pyrimidin-4-yl)-piperidin-4-yl]-methyl-carbamoyl]-2,3-dihydro-1H-inden-1-yl]-2-(trifluoromethyl)-pyridine-3-carboxylic acid amide], the inhibition – broadly, the change of the read-out against control, counted positive when it falls – at 10 µM was found to be 98%.

As to `Cc1ncc2n1C(=O)N(C1CCC(N(C)C(=O)c3ccc4c(c3)C(NC(=O)c3cccnc3C(F)(F)F)CC4)CC1)C2` (stereo not shown) [CC_H-607, N-[6-[Methyl-[4-(5-methyl-3-oxo-1,2-dihydro-imidazo[5,1-e]imidazol-2-yl)-cyclohexyl]-carbamoyl]-2,3-dihydro-1H-inden-1-yl]-2-(trifluoromethyl)-pyridine-3-carboxylic acid amide], the inhibition at 10 µM is 96%.

The test is the same for the next values; noted with them: CHO-K1, 10 μM, read-out: % Inhibition (r-B1R) at 10 μM.
Consider `CN(C(=O)c1ccc2c(c1)C(N(C)C(=O)Nc1ccccc1Cl)CC2)C1CCN(c2ccncc2)CC1` (stereo not shown) [CC_H-217, 3-[[(2-Chlorophenyl)-carbamoyl]-methyl-amino]-N-methyl-N-(1-pyridin-4-yl-piperidin-4-yl)-2,3-dihydro-1H-indene-5-carboxylic acid amide], for which the inhibition at 10 µM came to 94%.

With `CN(C(=O)c1ccc2c(c1)C(NC(=O)Nc1ccccc1Cl)CCC2)C1CCN(c2ccncc2)CC1` (stereo not shown) [CC_H-255, 8-[[(2-Chlorophenyl)-carbamoyl]amino]-N-methyl-N-(1-pyridin-4-yl-piperidin-4-yl)-5,6,7,8-tetrahydro-naphthalene-2-carboxylic acid amide], the inhibition at 10 µM was found to be 104%.

Turning to `Cc1cc(N2CCC(N(C)C(=O)c3ccc4c(c3)C(N(C)C(=O)Nc3cccc(Cl)c3)CC4)CC2)cc(C)n1` (stereo not shown) [CC_H-337, 3-[[(3-Chlorophenyl)-carbamoyl]-methyl-amino]-N-[1-(2,6-dimethyl-pyridin-4-yl)-piperidin-4-yl]-N-methyl-2,3-dihydro-1H-indene-5-carboxylic acid amide], the inhibition at 10 µM was found to be 110%.

Take `CN(C(=O)c1ccc2c(c1)C(NC(=O)Nc1cccc(Cl)c1Cl)CCC2)C1CCN(c2ccncc2)CC1` (stereo not shown) [CC_H-258, 8-[[(2,3-Dichloro-phenyl)-carbamoyl]amino]-N-methyl-N-(1-pyridin-4-yl-piperidin-4-yl)-5,6,7,8-tetrahydro-naphthalene-2-carboxylic acid amide]: the inhibition at 10 µM is 106%.

Take `Cc1cc(N2CCC(N(C)C(=O)c3ccc4c(c3)C(N(C)C(=O)Nc3ccc(F)c(Cl)c3)CC4)CC2)cc(C)n1` (stereo not shown) [CC_H-346, 3-[[(3-Chloro-4-fluoro-phenyl)-carbamoyl]-methyl-amino]-N-[1-(2,6-dimethyl-pyridin-4-yl)-piperidin-4-yl]-N-methyl-2,3-dihydro-1H-indene-5-carboxylic acid amide]: the inhibition at 10 µM is 70%.

In the case of `CN(C(=O)c1ccc2c(c1)C(NC(=O)Nc1cc(Cl)cc(Cl)c1)CCC2)C1CCN(c2ccncc2)CC1` (stereo not shown) [CC_H-260, 8-[[(3,5-Dichloro-phenyl)-carbamoyl]amino]-N-methyl-N-(1-pyridin-4-yl-piperidin-4-yl)-5,6,7,8-tetrahydro-naphthalene-2-carboxylic acid amide], the inhibition at 10 µM was 61%.

As to `COCC(=O)NC1CCc2ccc(C(=O)N(C)C3CCN(c4ccncc4)CC3)cc21` (stereo not shown) [CC_H-207, 3-[(2-Methoxy-acetyl)amino]-N-methyl-N-(1-pyridin-4-yl-piperidin-4-yl)-2,3-dihydro-1H-indene-5-carboxylic acid amide], the inhibition at 10 µM came out at 89%.
